# Biological target: human recombinant LRRK2 protein (Homo sapiens, UniProt Q5S007)
# Test: LRRK2 kinase activity assay (ADP-Glo, LRRKtide peptide)
# Format: biochemical
# Details: human recombinant LRRK2 wt, LRRKtide peptide and ATP, 1 h at 37° C.
# Experimental: The inhibition of LRRK2 kinase was assessed using human recombinant LRRK2 protein in an in vitro peptide-based kinase assay.
# LRRK2 Kinase reactions were carried out in 384-well white polystyrene plates in a final volume of 6 μl using ADP-Glo™ Kinase Assay kit (Promega Corp.). Compound and substrates (LRRKtide peptide and ATP) in assay buffer were first dispensed in wells. Kinase reaction was then started by the addition of human recombinant LRRK2 protein. After 1 h-incubation at 37° C., the enzymatic reactions was stopped by the addition of 6 μl of ADP-Glo Reagent-1 and an additional 40-minutes incubation at 23° C. (residual ATP depletion). A final 30-minutes incubation after 12 μL reagent-2 addition (ADP to ATP conversion and luciferin/luciferase reaction) was performed before luminescent signal acquisition (EnVision™ multimode plate reader—PerkinElmer, Inc.). Data from 10 individual concentrations of tested compounds (N=2) were fitted (XLfit™—ID Business Solutions Ltd) to deliver IC50s (compound concentration leading to 50% inhibition of reference enzymatic activity).
# The compounds are dissolved to 5 mM in DMSO. When needed, solutions are sonicated in a bath sonicator.
# Table 2 provides the pIC50 values of the compounds according to the invention, obtained using the above mentioned kinase assay. Activities are represented as +++, ++ and +, having the following meanings: • «+++» means an IC50<10 nM • «++» means an IC50<100 nM • «+» means an IC50<1 μM • «−» means an IC50>1 μM
# Chain of human recombinant LRRK2 protein (Q5S007 whole entry): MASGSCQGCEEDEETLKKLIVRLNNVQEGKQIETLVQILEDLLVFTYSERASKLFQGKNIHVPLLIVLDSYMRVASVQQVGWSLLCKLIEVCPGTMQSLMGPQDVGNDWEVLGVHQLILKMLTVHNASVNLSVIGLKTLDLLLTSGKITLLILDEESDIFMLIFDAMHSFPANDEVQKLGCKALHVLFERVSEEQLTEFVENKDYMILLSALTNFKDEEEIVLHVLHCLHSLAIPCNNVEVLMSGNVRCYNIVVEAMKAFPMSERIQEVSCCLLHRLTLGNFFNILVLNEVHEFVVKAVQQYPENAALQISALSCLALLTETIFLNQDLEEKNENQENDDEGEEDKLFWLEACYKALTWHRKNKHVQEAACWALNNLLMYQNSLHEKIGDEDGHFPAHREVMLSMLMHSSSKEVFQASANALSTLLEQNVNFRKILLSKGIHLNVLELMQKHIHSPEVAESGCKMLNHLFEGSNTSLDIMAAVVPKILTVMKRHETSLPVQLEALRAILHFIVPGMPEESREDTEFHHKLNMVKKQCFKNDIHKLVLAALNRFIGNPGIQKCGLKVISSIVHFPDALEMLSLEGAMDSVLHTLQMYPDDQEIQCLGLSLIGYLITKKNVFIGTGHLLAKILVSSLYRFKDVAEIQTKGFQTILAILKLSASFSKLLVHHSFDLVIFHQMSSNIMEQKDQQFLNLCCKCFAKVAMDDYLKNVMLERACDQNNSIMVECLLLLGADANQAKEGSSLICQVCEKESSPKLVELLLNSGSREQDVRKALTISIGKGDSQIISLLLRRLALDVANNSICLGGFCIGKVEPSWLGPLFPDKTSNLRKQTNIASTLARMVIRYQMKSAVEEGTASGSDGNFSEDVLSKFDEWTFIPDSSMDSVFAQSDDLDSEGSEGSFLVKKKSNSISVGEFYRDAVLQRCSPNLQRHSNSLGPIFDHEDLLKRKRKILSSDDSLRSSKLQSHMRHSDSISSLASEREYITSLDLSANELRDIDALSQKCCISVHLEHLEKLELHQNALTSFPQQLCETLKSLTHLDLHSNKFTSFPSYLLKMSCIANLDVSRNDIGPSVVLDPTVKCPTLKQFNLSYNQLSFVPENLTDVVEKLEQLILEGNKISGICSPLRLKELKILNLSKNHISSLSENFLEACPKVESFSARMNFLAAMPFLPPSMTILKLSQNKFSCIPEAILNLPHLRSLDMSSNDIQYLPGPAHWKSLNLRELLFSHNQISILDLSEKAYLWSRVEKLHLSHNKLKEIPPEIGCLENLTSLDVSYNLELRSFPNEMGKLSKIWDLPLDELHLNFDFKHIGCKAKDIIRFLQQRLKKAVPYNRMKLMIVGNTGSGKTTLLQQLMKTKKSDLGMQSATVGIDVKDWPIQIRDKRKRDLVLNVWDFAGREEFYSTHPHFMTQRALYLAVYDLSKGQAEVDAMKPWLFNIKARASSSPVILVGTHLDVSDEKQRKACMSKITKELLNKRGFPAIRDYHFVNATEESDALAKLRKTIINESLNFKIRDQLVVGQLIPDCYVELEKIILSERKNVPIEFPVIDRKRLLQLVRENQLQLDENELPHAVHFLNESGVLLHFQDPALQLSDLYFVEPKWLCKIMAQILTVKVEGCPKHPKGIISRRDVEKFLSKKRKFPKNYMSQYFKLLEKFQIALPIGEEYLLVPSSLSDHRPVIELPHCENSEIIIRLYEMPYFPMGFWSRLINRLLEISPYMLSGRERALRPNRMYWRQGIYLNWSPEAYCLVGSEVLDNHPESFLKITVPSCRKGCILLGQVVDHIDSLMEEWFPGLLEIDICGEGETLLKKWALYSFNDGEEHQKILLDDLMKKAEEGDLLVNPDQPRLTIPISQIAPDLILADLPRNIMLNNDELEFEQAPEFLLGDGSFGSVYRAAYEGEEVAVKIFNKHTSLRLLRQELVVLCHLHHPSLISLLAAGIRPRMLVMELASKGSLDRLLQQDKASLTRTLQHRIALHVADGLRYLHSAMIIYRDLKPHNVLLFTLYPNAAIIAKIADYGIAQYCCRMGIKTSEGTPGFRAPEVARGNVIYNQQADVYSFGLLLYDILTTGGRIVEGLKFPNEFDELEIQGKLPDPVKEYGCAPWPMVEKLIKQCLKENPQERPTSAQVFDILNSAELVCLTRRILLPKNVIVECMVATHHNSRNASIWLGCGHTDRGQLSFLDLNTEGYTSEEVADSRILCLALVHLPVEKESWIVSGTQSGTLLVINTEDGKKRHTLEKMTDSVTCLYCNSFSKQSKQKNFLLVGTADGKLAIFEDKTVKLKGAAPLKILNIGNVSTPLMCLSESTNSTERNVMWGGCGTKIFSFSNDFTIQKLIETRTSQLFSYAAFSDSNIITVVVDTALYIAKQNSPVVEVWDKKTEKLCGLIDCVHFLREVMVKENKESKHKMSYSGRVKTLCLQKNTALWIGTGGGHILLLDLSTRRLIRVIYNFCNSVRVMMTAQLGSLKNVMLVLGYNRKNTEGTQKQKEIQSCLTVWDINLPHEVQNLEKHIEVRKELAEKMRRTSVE
row,IC50 [µM],Compound
1,< 0.01,"C[C@@H]1C[C@@H](C)Oc2ccc3[nH]nc(c3c2)-c2cnn(c2)CCCO1 [Example 126, (10R,12R)-10,12-dimethyl-9,13-dioxa-4,5,18,19-tetraazatetracyclo [12.5.2.1^2,5.0^17,20]docosa-1(19),2(22),3,14(21),15,17(20)-hexaene]"
2,< 0.01,"C[C@H]1CCOCCCOc2ccc3[nH]nc(c3c2)-c2cnn1c2 [Example 15, (6S)-6-methyl-9,13-dioxa-4,5,18,19-tetraazatetracyclo[12.5.2.1^2,5.0^17,20] docosa-1(19),2(22),3,14(21),15,17(20)-hexaene]"
3,< 0.1,"O=C1COc2cncc(c2)-c2n[nH]c3ccc(cc23)OCCN1 [Example 199, 7,13-dioxa-4,10,18,19-tetraazatetracyclo[12.5.2.1^2,6.0^17,20] docosa-1(19),2(22),3,5,14(21),15,17(20)-heptaen-9-one]"
4,< 0.1,"C[C@H]1COCCO[C@H](C)c2cncc(c2)-c2n[nH]c3ccc(cc23)O1 [Example 10, (7R,13S)-7,13-dimethyl-8,11,14-trioxa-4,19,20-triazatetracyclo[13.5.2.1^2,6.0^18,21]tricosa-1(20),2,4,6(23),15(22),16,18(21)-heptaene]"
5,< 0.01,"C[C@H]1CCOCCCc2csc(n2)-c2n[nH]c3ccc(cc23)O1 [Example 48, (12S)-12-methyl-9,13-dioxa-3-thia-18,19,22-triazatetracyclo[12.5.2.1^2,5.0^17,20]docosa-1(19),2(22),4,14(21),15,17(20)-hexaene]"
6,< 0.01,"C[C@@H]1CCOCCOCCn2cc(cn2)-c2n[nH]c3ccc(cc23)O1 [Example 131, (14R)-14-methyl-8,11,15-trioxa-4,5,20,21-tetraazatetracyclo[14.5.2.1^2,5.0^19,22]tetracosa-1(21),2(24),3,16(23),17,19(22)-hexaene]"
7,< 0.01,"O=C1COc2cc(cc(N3CCOCC3)c2)-c2n[nH]c3ccc(cc23)OCCCN1 [Example 207, 4-(morpholin-4-yl)-7,14-dioxa-10,19,20-triazatetracyclo [13.5.2.1^2,6.0^18,21]tricosa-1(20),2(23),3,5,15,17,21-heptaen-9-one]"
8,< 0.01,"c1cc2[nH]nc3c2cc1NCCCOCCOc1cncc-3c1 [Example 4, 7,10-dioxa-4,14,19,20-tetraazatetracyclo[13.5.2.1^2,6.0^18,21]tricosa-1(20),2(23), 3,5,15(22),16,18(21)-heptaene]"
9,< 0.1,"C[C@H]1CCOCCOc2nccc(n2)-c2n[nH]c3ccc(cc23)N1 [Example 30, (13S)-13-methyl-7,10-dioxa-5,14,19,20,23-pentaazatetracyclo[13.5.2.1^2,6.0^18,21]tricosa-1(20),2(23),3,5,15(22),16,18(21)-heptaene]"
10,< 0.01,"Clc1cc2cc(c1)-c1n[nH]c3ccc(cc13)OCCCNCCO2 [Example 143, 4-chloro-7,14-dioxa-10,19,20-triazatetracyclo[13.5.2.1^2,6.0^18,21]tricosa-1(20),2,4,6(23),15,17,21-heptaene]"
11,< 0.01,"[2H]C1([2H])OCCO[C@@H](C)COc2ccc3[nH]nc(c3c2)-c2cnn(c2)C1([2H])[2H] [Example 110, (12S)-12-methyl(6,6,7,7-2H4)-8,11,14-trioxa-4,5,19,20-tetraazatetracyclo [13.5.2.1^2,5.0^18,21]tricosa-1(20),2(23),3,15(22),16,18(21)-hexaene]"
12,< 0.01,"C[C@@H]1CCNCCOc2cc(cc(N3CCOCC3)c2)-c2n[nH]c3ccc(cc23)O1 [Example 173, (13R)-13-methyl-4-(morpholin-4-yl)-7,14-dioxa-10,19,20-triazatetracyclo[13.5.2.1^2,6.0^18,21]tricosa-1(20),2(23),3,5,15,17,21-heptaene]"
13,< 0.01,"O=C1COc2cncc(n2)-c2n[nH]c3ccc(cc23)OCCCN1 [Example 193, 7,14-dioxa-4,10,19,20,23-pentaazatetracyclo[13.5.2.1^2,6.0^18,21]tricosa-1(20),2(23),3,5,15(22),16,18(21)-heptaen-9-one]"
14,< 0.01,"O=C1CCc2cccc(c2)-c2n[nH]c3ccc(cc23)OCCCN1 [Example 166, 14-oxa-10,19,20-triazatetracyclo[13.5.2.1^2,6.0^18,21]tricosa-1(20),2(23),3,5,15(22),16,18(21)-heptaen-9-one]"
15,< 0.01,"Cc1cc2cc(c1)-c1n[nH]c3ccc(cc13)OCCCNCCO2 [Example 145, 4-methyl-7,14-dioxa-10,19,20-triazatetracyclo[13.5.2.1^2,6.0^18,21]tricosa-1(20),2(23),3,5,15,17,21-heptaene]"
16,< 0.1,"C[C@H]1COc2nccc(n2)-c2n[nH]c3ccc(cc23)O[C@@H](C)CCO1 [Example 59, (9S,13S)-9,13-dimethyl-7,10,14-trioxa-5,19,20,23-tetraazatetracyclo [13.5.2.1^2,6.0^18,21]tricosa-1(20),2(23),3,5,15(22),16,18(21)-heptaene]"
17,< 0.1,"C[C@H]1CCOC[C@H](C)Oc2ccc3[nH]nc(c3c2)-c2cncc(c2)O1 [Example 12, (8S,13S)-8,13-dimethyl-7,11,14-trioxa-4,19,20-triazatetracyclo[13.5.2.1^2,6.0^18,21]tricosa-1(20),2(23),3,5,15(22),16,18(21)-heptaene]"
18,< 0.1,"C[C@@H]1Oc2ccc3[nH]nc(c3c2)-c2cnn(c2)CCOCCO[C@@H]1C [Example 100, (12R,13S)-12,13-dimethyl-8,11,14-trioxa-4,5,19,20-tetraazatetra cyclo[13.5.2.1^2,5.0^18,21]tricosa-1(20),2(23),3,15(22),16,18(21)-hexaene]"
19,< 0.01,"C[C@@H]1CCOC[C@@H](C)Oc2cncc(c2)-c2n[nH]c3ccc(cc23)O1 [Example 23, (8R,13R)-8,13-dimethyl-7,10,14-trioxa-4,19,20-triazatetracyclo[13.5.2.1^2,6.0^18,21]tricosa-1(20),2(23),3,5,15(22),16,18(21)-heptaene]"
20,< 0.01,"FC1(F)COCCCOc2ccc3[nH]nc(c3c2)-c2cnn(c2)C1 [Example 118, 7,7-difluoro-9,13-dioxa-4,5,18,19-tetraazatetracyclo[12.5.2.1^2,5.0^17,20] docosa-1(19),2(22),3,14(21),15,17(20)-hexaene]"
21,< 0.01,"FC(F)(F)c1cc2cc(c1)-c1n[nH]c3ccc(cc13)OCCCNCCO2 [Example 186, 4-(trifluoromethyl)-7,14-dioxa-10,19,20-triazatetracyclo [13.5.2.1^2,6.0^18,21]tricosa-1(20),2,4,6(23),15,17,21-heptaene]"
22,< 0.1,"COCC1CCOc2ccc3[nH]nc(c3c2)-c2cccc(c2)OCCN1 (single isomer, unassigned) [Example 153, (11R) or (11S)-11-(methoxymethyl)-7,14-dioxa-10,19,20-triazatetracyclo[13.5.2.1^2,6.0^18,21]tricosa-1(20),2(23),3,5,15,17,21-heptaene]"
23,< 1,"CN1CCCOc2ccc3[nH]nc(c3c2)-c2cncc(c2)OCCC1=O [Example 198, 11-methyl-7,15-dioxa-4,11,20,21-tetraazatetracyclo [14.5.2.1^2,6.0^19,22] tetracosa-1(21),2,4,6(24),16,18,22-heptaen-10-one]"
24,< 0.01,"C[C@@H]1COc2ccc3[nH]nc(c3c2)-c2cnn(c2)CCOCCO1 [Example 67, (12R)-12-methyl-8,11,14-trioxa-4,5,19,20-tetraazatetracyclo[13.5.2.1^2,5.0^18,21]tricosa-1(20),2(23),3,15(22),16,18(21)-hexaene]"

# — patent US20240246992A1, “MACROCYCLIC LRRK2 KINASE INHIBITORS” (LES LABORATOIRES SERVIER, priority 2021, published 2024)
